# According to ChEMBL document CHEMBL1687752, “Impact of antifungal prophylaxis on colonization and azole susceptibility of Candida species” (2009):
# Experiments:
# Type in all cases: functional
# [1] = system: Candida albicans; experiment: Antifungal activity against Candida albicans isolated from HSCT recipients with acute or chronic GVHD receiving posaconazole assessed as maximum MIC by broth microdilution method
# [2] = system: Pichia kudriavzevii; experiment: Antifungal activity against 14 days cultured Candida krusei isolated from neutropenic subject with AML or MDS stool after 12 days of prophylaxis by broth microdilution method
# [3] = system: Nakaseomyces glabratus; experiment: Antifungal activity against Candida glabrata isolated from neutropenic subjects with AML or MDS receiving fluconazole by broth microdilution method
# [4] = system: Nakaseomyces glabratus; experiment: Antifungal activity against Candida glabrata isolated from neutropenic subject 1318 with AML or MDS stool after 36 days prophylaxis by broth microdilution method
# [5] = system: Candida tropicalis; experiment: Antifungal activity against -3 days cultured Candida tropicalis isolated from neutropenic subject with AML or MDS pharynx receiving antifungal therapy for 45 days after 24 days of prophylaxis by broth microdilution method
# [6] = system: Candida tropicalis; experiment: Antifungal activity against -3 days cultured Candida tropicalis isolated from neutropenic subject with AML or MDS stool receiving antifungal therapy for 45 days after 24 days of prophylaxis by broth microdilution method
# [7] = system: Nakaseomyces glabratus; experiment: Antifungal activity against Candida glabrata isolated from neutropenic subject 1331 with AML or MDS pharynx receiving antifungal drug after 21 days prophylaxis by broth microdilution method; conditions: 504 h
# [8] = system: Pichia kudriavzevii; experiment: Antifungal activity against Candida krusei isolated from HSCT recipients with acute or chronic GVHD prior to initiation of fluconazole therapy assessed as maximum MIC by broth microdilution method
# [9] = system: Nakaseomyces glabratus; experiment: Antifungal activity against Candida glabrata isolated from neutropenic subject 1187 with AML or MDS stool receiving antifungal drug after 22 days prophylaxis by broth microdilution method; conditions: 528 h
# [10] = system: Candida albicans; experiment: Antifungal activity against Candida albicans isolated from neutropenic subjects with AML or MDS receiving fluconazole by broth microdilution method
# [11] = system: Candida albicans; experiment: Antifungal activity against Candida albicans isolated from HSCT recipient 928 with acute or chronic GVHD mouth receiving antifungal drug after 112 days prophylaxis by broth microdilution method
# [12] = system: Candida albicans; experiment: Antifungal activity against Candida albicans isolated from HSCT recipients with acute or chronic GVHD prior to initiation of posaconazole therapy by broth microdilution method
# [13] = system: Nakaseomyces glabratus; experiment: Antifungal activity against Candida glabrata isolated from HSCT recipient 270 with acute or chronic GVHD mouth after 108 days prophylaxis by broth microdilution method
# [14] = system: Pichia kudriavzevii; experiment: Antifungal activity against Candida krusei isolated from neutropenic subjects with AML or MDS receiving fluconazole assessed as maximum MIC by broth microdilution method
# [15] = system: Nakaseomyces glabratus; experiment: Antifungal activity against Candida glabrata isolated from neutropenic subjects with AML or MDS prior to initiation of posaconazole therapy by broth microdilution method
# [16] = system: Nakaseomyces glabratus; experiment: Antifungal activity against 88 days cultured Candida glabrata isolated from HSCT recipient with acute or chronic GVHD mouth receiving antifungal therapy for 75 days after 33 days of prophylaxis by broth microdilution method
# [17] = system: Pichia kudriavzevii; experiment: Antifungal activity against 19 days cultured Candida krusei isolated from invasive fungal infected subject blood receiving antifungal therapy for 19 days after 6 days of prophylaxis by broth microdilution method
# [18] = system: Nakaseomyces glabratus; experiment: Antifungal activity against Candida glabrata isolated from HSCT recipient 975 with acute or chronic GVHD mouth after 112 days prophylaxis by broth microdilution method
# [19] = system: Pichia kudriavzevii; experiment: Antifungal activity against 6 days cultured Candida krusei isolated from neutropenic subject with AML or MDS pharynx receiving antifungal therapy for 19 days after 6 days of prophylaxis by broth microdilution method
# [20] = system: Nakaseomyces glabratus; experiment: Antifungal activity against 29 days cultured Candida glabrata isolated from neutropenic subject with AML or MDS pharynx after 48 days of prophylaxis by broth microdilution method
# [21] = system: Nakaseomyces glabratus; experiment: Antifungal activity against 177 days cultured Candida glabrata isolated from HSCT recipient with acute or chronic GVHD mouth receiving antifungal therapy for 172 days after 114 days of prophylaxis by broth microdilution method
# [22] = system: Nakaseomyces glabratus; experiment: Antifungal activity against 3 days cultured Candida glabrata isolated from neutropenic subject with AML or MDS stool receiving antifungal therapy for 25 days after 3 days of prophylaxis by broth microdilution method
# [23] = system: Nakaseomyces glabratus; experiment: Antifungal activity against Candida glabrata isolated from neutropenic subjects with AML or MDS receiving posaconazole assessed as maximum MIC by broth microdilution method
# [24] = system: Nakaseomyces glabratus; experiment: Antifungal activity against Candida glabrata isolated from HSCT recipients with acute or chronic GVHD prior to initiation of posaconazole therapy assessed as maximum MIC by broth microdilution method
# [25] = system: Nakaseomyces glabratus; experiment: Antifungal activity against Candida glabrata isolated from HSCT recipient 807 with acute or chronic GVHD mouth receiving antifungal drug after 114 days prophylaxis by broth microdilution method
# [26] = system: Nakaseomyces glabratus; experiment: Antifungal activity against Candida glabrata isolated from HSCT recipients with acute or chronic GVHD receiving posaconazole assessed as maximum MIC by broth microdilution method
# [27] = system: Nakaseomyces glabratus; experiment: Antifungal activity against Candida glabrata isolated from HSCT recipients with acute or chronic GVHD prior to initiation of posaconazole therapy by broth microdilution method
# [28] = system: Candida albicans; experiment: Antifungal activity against Candida albicans isolated from neutropenic subjects with AML or MDS receiving posaconazole by broth microdilution method
# [29] = system: Nakaseomyces glabratus; experiment: Antifungal activity against Candida glabrata isolated from HSCT recipient 270 with acute or chronic GVHD mouth receiving antifungal drug after 108 days prophylaxis by broth microdilution method
# [30] = system: Pichia kudriavzevii; experiment: Antifungal activity against 1 day cultured Candida krusei isolated from neutropenic subject with AML or MDS pharynx receiving antifungal therapy for 19 days after 6 days of prophylaxis by broth microdilution method
# [31] = system: Candida albicans; experiment: Antifungal activity against Candida albicans isolated from neutropenic subjects with AML or MDS receiving fluconazole assessed as maximum MIC by broth microdilution method
# [32] = system: Nakaseomyces glabratus; experiment: Antifungal activity against Candida glabrata isolated from neutropenic subject 1102 with AML or MDS stool receiving antifungal drug after 26 days prophylaxis by broth microdilution method; conditions: 624 h
# [33] = system: Candida albicans; experiment: Antifungal activity against Candida albicans isolated from neutropenic subjects with AML or MDS receiving posaconazole assessed as maximum MIC by broth microdilution method
# [34] = system: Candida albicans; experiment: Antifungal activity against Candida albicans isolated from HSCT recipient 301 with acute or chronic GVHD mouth receiving antifungal drug after 114 days prophylaxis by broth microdilution method
# [35] = system: Nakaseomyces glabratus; experiment: Antifungal activity against Candida glabrata isolated from neutropenic subject 1497 with AML or MDS pharynx after 61 days prophylaxis by broth microdilution method
# [36] = system: Nakaseomyces glabratus; experiment: Antifungal activity against Candida glabrata isolated from HSCT recipients with acute or chronic GVHD receiving posaconazole by broth microdilution method
# [37] = system: Nakaseomyces glabratus; experiment: Antifungal activity against Candida glabrata isolated from neutropenic subject 1491 with AML or MDS pharynx after 23 days prophylaxis by broth microdilution method; conditions: 552 h
# [38] = system: Nakaseomyces glabratus; experiment: Antifungal activity against -2 days cultured Candida glabrata isolated from HSCT recipient with acute or chronic GVHD mouth receiving antifungal therapy for 172 days after 114 days of prophylaxis by broth microdilution method
# [39] = system: Nakaseomyces glabratus; experiment: Antifungal activity against Candida glabrata isolated from neutropenic subject 1102 with AML or MDS stool after 26 days prophylaxis by broth microdilution method; conditions: 624 h
smiles,measurement,setting,value
CC[C@@H]([C@H](C)O)n1ncn(-c2ccc(N3CCN(c4ccc(OC[C@@H]5CO[C@@](Cn6cncn6)(c6ccc(F)cc6F)C5)cc4)CC3)cc2)c1=O [POSACONAZOLE],MIC,[1],0.25 µg/mL
same,MIC,[2],0.125 µg/mL
same,MIC50,[3],0.5 µg/mL
same,MIC90,[3],1 µg/mL
same,MIC,[4],0.5 µg/mL
same,MIC,[5],< 0.015 µg/mL
same,MIC,[6],< 0.015 µg/mL
same,MIC,[7],8 µg/mL
same,MIC,[8],0.5 µg/mL
same,MIC,[9],4 µg/mL
same,MIC50,[10],0.015 µg/mL
same,MIC90,[10],0.015 µg/mL
same,MIC,[11],> 8 µg/mL
same,MIC50,[12],0.016 µg/mL
same,MIC90,[12],0.06 µg/mL
same,MIC,[13],0.06 µg/mL
same,MIC,[14],0.25 µg/mL
same,MIC50,[15],0.25 µg/mL
same,MIC90,[15],2 µg/mL
same,MIC,[16],2 µg/mL
same,MIC,[17],0.06 µg/mL
same,MIC,[18],0.25 µg/mL
same,MIC,[19],0.06 µg/mL
same,MIC,[20],8 µg/mL
same,MIC,[21],1 µg/mL
same,MIC,[22],0.5 µg/mL
same,MIC,[23],8 µg/mL
same,MIC,[24],8 µg/mL
same,MIC,[25],> 8 µg/mL
same,MIC,[26],8 µg/mL
same,MIC50,[27],0.5 µg/mL
same,MIC90,[27],4 µg/mL
same,MIC50,[28],0.015 µg/mL
same,MIC90,[28],0.015 µg/mL
same,MIC,[29],1 µg/mL
same,MIC,[30],0.06 µg/mL
same,MIC,[31],8 µg/mL
same,MIC,[32],> 8 µg/mL
same,MIC,[33],0.03 µg/mL
same,MIC,[34],0.03 µg/mL
same,MIC,[35],0.03 µg/mL
same,MIC50,[36],2 µg/mL
same,MIC90,[36],8 µg/mL
same,MIC,[37],0.5 µg/mL
same,MIC,[38],0.5 µg/mL
same,MIC,[39],0.25 µg/mL
CCC(C)n1ncn(-c2ccc(N3CCN(c4ccc(OCC5COC(Cn6cncn6)(c6ccc(Cl)cc6Cl)O5)cc4)CC3)cc2)c1=O (stereo not drawn) [ITRACONAZOLE],MIC,[1],0.25 µg/mL
same,MIC,[2],0.25 µg/mL
same,MIC50,[3],0.5 µg/mL
same,MIC90,[3],2 µg/mL
same,MIC,[4],0.25 µg/mL
same,MIC,[5],0.03 µg/mL
same,MIC,[6],0.03 µg/mL
same,MIC,[7],8 µg/mL
same,MIC,[8],1 µg/mL
same,MIC,[9],4 µg/mL
same,MIC50,[10],0.015 µg/mL
same,MIC90,[10],0.015 µg/mL
same,MIC,[11],> 8 µg/mL
same,MIC50,[12],0.03 µg/mL
same,MIC90,[12],0.06 µg/mL
same,MIC,[13],0.125 µg/mL
same,MIC,[14],1 µg/mL
same,MIC50,[15],0.25 µg/mL
same,MIC90,[15],8 µg/mL
same,MIC,[16],2 µg/mL
same,MIC,[17],0.25 µg/mL
same,MIC,[18],0.25 µg/mL
same,MIC,[19],0.5 µg/mL
same,MIC,[20],8 µg/mL
same,MIC,[21],1 µg/mL
same,MIC,[22],1 µg/mL
same,MIC,[23],8 µg/mL
same,MIC,[24],8 µg/mL
same,MIC,[25],> 8 µg/mL
same,MIC,[26],8 µg/mL
same,MIC50,[27],1 µg/mL
same,MIC90,[27],8 µg/mL
same,MIC50,[28],0.015 µg/mL
same,MIC90,[28],0.03 µg/mL
same,MIC,[29],1 µg/mL
same,MIC,[30],0.125 µg/mL
same,MIC,[31],8 µg/mL
same,MIC,[32],> 8 µg/mL
same,MIC,[33],0.03 µg/mL
same,MIC,[34],0.25 µg/mL
same,MIC,[35],0.06 µg/mL
same,MIC50,[36],2 µg/mL
same,MIC90,[36],8 µg/mL
same,MIC,[37],1 µg/mL
same,MIC,[38],1 µg/mL
same,MIC,[39],1 µg/mL
OC(Cn1cncn1)(Cn1cncn1)c1ccc(F)cc1F [FLUCONAZOLE],MIC,[1],64 µg/mL
same,MIC,[2],64 µg/mL
same,MIC50,[3],4 µg/mL
same,MIC90,[3],16 µg/mL
same,MIC,[4],4 µg/mL
same,MIC,[5],0.5 µg/mL
same,MIC,[6],0.25 µg/mL
same,MIC,[7],> 64 µg/mL
same,MIC,[8],64 µg/mL
same,MIC,[9],32 µg/mL
same,MIC50,[10],0.25 µg/mL
same,MIC90,[10],0.5 µg/mL
same,MIC,[11],128 µg/mL
same,MIC50,[12],0.25 µg/mL
same,MIC90,[12],4 µg/mL
same,MIC,[13],8 µg/mL
same,MIC,[14],64 µg/mL
same,MIC50,[15],4 µg/mL
same,MIC90,[15],16 µg/mL
same,MIC,[16],> 64 µg/mL
same,MIC,[17],32 µg/mL
same,MIC,[18],4 µg/mL
same,MIC,[19],32 µg/mL
same,MIC,[20],> 64 µg/mL
same,MIC,[21],32 µg/mL
same,MIC,[22],8 µg/mL
same,MIC,[23],64 µg/mL
same,MIC,[24],64 µg/mL
same,MIC,[25],128 µg/mL
same,MIC,[26],64 µg/mL
same,MIC50,[27],16 µg/mL
same,MIC90,[27],64 µg/mL
same,MIC50,[28],0.25 µg/mL
same,MIC90,[28],0.25 µg/mL
same,MIC,[29],8 µg/mL
same,MIC,[30],32 µg/mL
same,MIC,[31],64 µg/mL
same,MIC,[32],> 64 µg/mL
same,MIC,[33],0.25 µg/mL
same,MIC,[34],0.25 µg/mL
same,MIC,[35],2 µg/mL
same,MIC50,[36],64 µg/mL
same,MIC90,[36],64 µg/mL
same,MIC,[37],4 µg/mL
same,MIC,[38],16 µg/mL
same,MIC,[39],4 µg/mL
